# Source: paper PMC3745031 (Bioorganic & medicinal chemistry letters, 2012)
# pIC50: −log10 of the molar value.
# Experiments:
# [1] = test system: HDAC activity of HeLa cell lysates; settings: ref 16b, cited from earlier work
# HDAC1, HDAC3, and HDAC6 = experiment: Isoform preference across HDAC1, HDAC3 and HDAC6; assay type: biochemical
# [2] = test system: HDAC activity of HeLa cell lysates
smiles,measurement,setting,value
O=C(CC(CCCCC(=O)Nc1ccccc1)c1ccccc1)NO (stereo not shown) [C3-phenyl SAHA variant],pIC50,"[1]; read-out: IC50, HDAC inhibition",4.14
same,fold reduced activity versus SAHA,[1],811 fold
CC(CCCCC(=O)NO)CC(=O)Nc1ccccc1 (stereo not shown) [2a],isoform preference in single-concentration screen,"HDAC1, HDAC3, and HDAC6; 500 nM",modest dual-preference for HDAC1 and HDAC3 over HDAC6
O=C(CCCCC(CC(=O)Nc1ccccc1)c1ccccc1)NO (stereo not shown) [2b],isoform preference in single-concentration screen,"HDAC1, HDAC3, and HDAC6; 500 nM","similarly inhibited HDAC1, HDAC3, and HDAC6"
CCCCC(CC)CC(CCCCC(=O)NO)CC(=O)Nc1ccccc1 (stereo not shown) [2d],isoform preference in single-concentration screen,"HDAC1, HDAC3, and HDAC6; 500 nM",preference for HDAC3 over HDAC1 and HDAC6
CC(C)(C)C(CCCCC(=O)NO)CC(=O)Nc1ccccc1 (stereo not shown) [2c],fold reduced potency compared to SAHA,[2],20 fold
same,isoform preference in single-concentration screen,"HDAC1, HDAC3, and HDAC6; 2 µM",preference for HDAC1 and HDAC6 over HDAC3
